Test results as given in patent US11377442B2, “Small molecule agonists and antagonists of NR2F6 activity” (ZANDER THERAPEUTICS, INC., priority 2016, dated 2022).
Like-named read-outs stand apart in the source and are kept apart here.

Assays:
Type in all cases: cell-based
ERα [1] = biological target: T1, ERα (Homo sapiens, UniProt P03372); experiment: Counterscreening, Firefly signal with ERα transient transfection (Firefly_ERa); conditions: 10 uM
T1 construct: expressed in transfected cells
T1 sequence (P03372 1-595): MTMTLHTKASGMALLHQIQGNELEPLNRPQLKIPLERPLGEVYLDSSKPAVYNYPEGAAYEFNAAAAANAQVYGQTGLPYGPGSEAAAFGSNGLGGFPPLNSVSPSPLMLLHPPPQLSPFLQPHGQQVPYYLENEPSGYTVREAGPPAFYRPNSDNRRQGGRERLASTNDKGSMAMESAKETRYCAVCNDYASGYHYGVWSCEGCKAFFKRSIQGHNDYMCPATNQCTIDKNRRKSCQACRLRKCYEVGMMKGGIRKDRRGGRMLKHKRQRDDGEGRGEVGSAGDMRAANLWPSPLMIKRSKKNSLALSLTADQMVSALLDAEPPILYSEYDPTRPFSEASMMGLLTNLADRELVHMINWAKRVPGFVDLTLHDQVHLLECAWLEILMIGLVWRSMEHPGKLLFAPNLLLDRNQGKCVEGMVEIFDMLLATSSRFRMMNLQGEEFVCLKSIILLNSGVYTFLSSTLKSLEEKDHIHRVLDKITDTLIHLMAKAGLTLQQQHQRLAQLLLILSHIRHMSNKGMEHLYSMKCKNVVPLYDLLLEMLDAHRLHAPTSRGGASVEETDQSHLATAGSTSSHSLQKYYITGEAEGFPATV
Method: The methodology for screening candidate compounds as NR2F6 agonists was as follows: For primary screening, hit criteria was ACT %>DMSO control+5*SD (DSO control) at 10 μM, or any compound with S/B>2. For rescreening, hit criteria was ACT %>DMSO control+3*SD (DSO control) in each replicate at 10 μM. For counterscreening, hit criteria was mean ACT<DMSO control+3*SD (DMSO control) with ERα transient transfection in duplicate at 10 μM.

ERα [2] = biological target: T1, ERα; experiment: as above
Renilla = Renilla signal in NR2F6 agonist screening, cmpd/DMSO; conditions: Renilla, read-out: Renilla F4, cmpd/DMSO (mean)
Renilla_ERa = experiment: Renilla signal in ERα counterscreen (Renilla_ERa); conditions: read-out: Renilla ERalpha transient, cmpd/DMSO (mean)
NR2F6 = biological target: T2, NR2F6 (Homo sapiens, UniProt P10588); experiment: NR2F6 agonist screening, Firefly signal cmpd/DMSO
T2 construct: expressed in transfected cells; also transient transfection
T2 sequence (P10588 1-404): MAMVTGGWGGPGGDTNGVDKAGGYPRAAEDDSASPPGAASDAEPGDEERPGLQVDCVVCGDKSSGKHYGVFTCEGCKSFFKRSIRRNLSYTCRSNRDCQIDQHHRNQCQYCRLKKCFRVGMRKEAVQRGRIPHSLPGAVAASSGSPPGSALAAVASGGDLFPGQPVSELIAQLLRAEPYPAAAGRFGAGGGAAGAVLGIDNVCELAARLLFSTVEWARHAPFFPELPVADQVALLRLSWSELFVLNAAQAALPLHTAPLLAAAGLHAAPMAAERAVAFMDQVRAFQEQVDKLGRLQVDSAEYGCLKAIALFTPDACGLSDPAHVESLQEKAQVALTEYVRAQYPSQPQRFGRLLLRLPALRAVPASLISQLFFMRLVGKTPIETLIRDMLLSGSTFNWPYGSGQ

Firefly ERalpha transient, cmpd/DMSO (mean) (ERα [1])	Firefly ERalpha transient, cmpd/DMSO (mean) (ERα [2]; 2 uM)	Firefly ERalpha transient, cmpd/DMSO (mean) (ERα [2]; 40 uM)	Firefly F4, cmpd/DMSO (mean) (NR2F6; 2 uM, clone F4)	Firefly F4, cmpd/DMSO (mean) (NR2F6; 10 uM, clone F4)	Firefly F4, cmpd/DMSO (mean) (NR2F6; 40 uM, clone F4)	Firefly ERalpha transient, cmpd/DMSO (mean) (ERα [1]; Table 15)	Firefly ERalpha transient, cmpd/DMSO (mean) (ERα [2]; Table 15, 2 uM)	Firefly ERalpha transient, cmpd/DMSO (mean) (ERα [2]; Table 15, 40 uM)	SMILES	fold induction at 2 µM (Renilla; clone F4)	fold induction at 10 µM (Renilla; clone F4)	fold induction at 40 µM (Renilla; clone F4)	fold induction at 2 µM (Renilla_ERa)	fold induction at 10 µM (Renilla_ERa)	fold induction at 40 µM (Renilla_ERa)	fold induction at 2 µM (Renilla; Table 15)	fold induction at 10 µM (Renilla; Table 15)	fold induction at 40 µM (Renilla; Table 15)	fold induction at 2 µM (Renilla_ERa; Table 15)	fold induction at 10 µM (Renilla_ERa; Table 15)	further results
1.0	0.9	1.7	0.9	1.3	2.0	–	–	–	COC(=O)c1[nH]c2c(c(C(F)(F)F)nc3ccc(OC)cc32)c1N [Compound Z47]	1.1	1.2	1.7	1.2	1.4	1.2	–	–	–	–	–	–
0.3	1.5	0.5	0.9	0.5	0.7	–	–	–	N#Cc1c(C(F)(F)F)nc2ccc(Cl)cc2c1NC1CC1 [Compound Z48]	0.8	0.6	0.6	1.1	0.8	0.6	–	–	–	–	–	–
0.4	1.0	0.4	0.8	0.7	0.6	–	–	–	N#CC1=C(N)n2nc(-c3ccccc3)cc2NC1(c1ccc(N2CCOCC2)cc1)C(F)(F)F (stereo not drawn) [Compound Z49]	1	0.7	0.8	1	0.7	0.8	–	–	–	–	–	–
0.7	1.3	0.7	0.8	0.9	0.6	–	–	–	COc1ccc(-c2cc3n(n2)C(N)=C(C#N)C(c2cccn2C)(C(F)(F)F)N3)cc1OC (stereo not drawn) [Compound Z50]	1.6	2	0.8	1	0.8	0.6	–	–	–	–	–	–
0.8	1.3	0.4	0.6	0.6	0.7	–	–	–	N#Cc1c(C(F)(F)F)nc2ccc(Oc3ccccc3)cc2c1N1CCNCC1 [Compound Z51]	0.8	0.7	0.3	1.1	0.9	0.3	–	–	–	–	–	–
0.4	0.7	0.7	0.6	0.7	0.7	–	–	–	N#Cc1c(C(F)(F)F)nc2ccc(Oc3ccccc3)cc2c1NCCc1ccc(Cl)cc1 [Compound Z52]	0.8	0.5	0.6	1.1	0.8	0.7	–	–	–	–	–	–
0.3	1.0	0.4	0.8	0.4	0.5	–	–	–	CNc1c(C#N)c(C(F)(F)F)nc2ccc(Oc3ccccc3)cc12 [Compound Z53]	0.7	0.7	0.6	1	0.6	0.5	–	–	–	–	–	–
–	–	–	–	–	–	6.5	1.5	0.8	CCOC(=O)c1cnc2c(C)cc(C)cc2c1NCCCN [Compound Z58]	–	–	–	–	–	–	1.3	1.2	0.8	1.2	1.1	fold induction at 40 µM (Renilla_ERa; Table 15): 0.7; Firefly F4, cmpd/DMSO (mean) (NR2F6; Table 15, 2 uM): 0.9; Firefly F4, cmpd/DMSO (mean) (NR2F6; Table 15, 10 uM): 4.5; Firefly F4, cmpd/DMSO (mean) (NR2F6; Table 15, 40 uM): 0.8
–	–	–	–	–	–	9.1	3.0	0.7	CCOC(=O)c1cnc2c(C)cc(C)cc2c1NCCCN1CCCC1 [Compound Z61]	–	–	–	–	–	–	1.3	0.5	0.6	1.4	0.8	fold induction at 40 µM (Renilla_ERa; Table 15): 0.7; Firefly F4, cmpd/DMSO (mean) (NR2F6; Table 15, 2 uM): 1.7; Firefly F4, cmpd/DMSO (mean) (NR2F6; Table 15, 10 uM): 2.5; Firefly F4, cmpd/DMSO (mean) (NR2F6; Table 15, 40 uM): 0.8
–	–	–	–	–	–	1.5	1.1	0.7	CCOC(=O)c1cnc2c(C)cc(C)cc2c1N1CCC(N(C)C)CC1 [Compound Z68]	–	–	–	–	–	–	0.9	1	0.6	1.1	0.9	fold induction at 40 µM (Renilla_ERa; Table 15): 0.6; Firefly F4, cmpd/DMSO (mean) (NR2F6; Table 15, 2 uM): 1.5; Firefly F4, cmpd/DMSO (mean) (NR2F6; Table 15, 10 uM): 1.1; Firefly F4, cmpd/DMSO (mean) (NR2F6; Table 15, 40 uM): 1.2
–	–	–	–	–	–	1.1	0.9	1.5	CCOC(=O)c1cnc2c(C)cc(C)cc2c1NCCCO [Compound Z70]	–	–	–	–	–	–	0.8	1.3	1.3	1.1	1	fold induction at 40 µM (Renilla_ERa; Table 15): 1.2; Firefly F4, cmpd/DMSO (mean) (NR2F6; Table 15, 2 uM): 1.1; Firefly F4, cmpd/DMSO (mean) (NR2F6; Table 15, 10 uM): 1.0; Firefly F4, cmpd/DMSO (mean) (NR2F6; Table 15, 40 uM): 1.0
–	–	–	–	–	–	1.0	1.4	0.4	CCOC(=O)c1cnc2c(C)cc(C)cc2c1NCCCOC [Compound Z71]	–	–	–	–	–	–	1.1	0.9	0.4	1	1	fold induction at 40 µM (Renilla_ERa; Table 15): 0.5; Firefly F4, cmpd/DMSO (mean) (NR2F6; Table 15, 2 uM): 0.8; Firefly F4, cmpd/DMSO (mean) (NR2F6; Table 15, 10 uM): 1.0; Firefly F4, cmpd/DMSO (mean) (NR2F6; Table 15, 40 uM): 0.8
–	–	–	–	–	–	1.9	1.1	0.9	CCOC(=O)c1cnc2c(C)cc(C)cc2c1NCc1ccc(Cl)cc1 [Compound Z75]	–	–	–	–	–	–	1.1	1	0.8	1	0.9	fold induction at 40 µM (Renilla_ERa; Table 15): 0.7; Firefly F4, cmpd/DMSO (mean) (NR2F6; Table 15, 2 uM): 0.9; Firefly F4, cmpd/DMSO (mean) (NR2F6; Table 15, 10 uM): 1.2; Firefly F4, cmpd/DMSO (mean) (NR2F6; Table 15, 40 uM): 0.8
